From publication PMC3026871 (Cancer chemotherapy and pharmacology, 2010)

Tests used:
[1] = Plasma pharmacokinetics in patients; conditions: for concentration at 6 h: Cmin, 6 hours after the second dose
[2] = tested on: dogs; conditions: the most sensitive species; cited from earlier work
[3] = tested on: human tumor xenografts; conditions: cited from earlier work
[4] = ref Data on file, Millennium; cited from earlier work
[5] = ref Data on file, Millennium, cited from earlier work
[6] = tested on: patients with advanced solid tumors; test: Phase 1 safety: drug-related adverse events; type: in vivo
[7] = tested on: patients with advanced solid tumors; test: Clinical response; type: in vivo, human; conditions: RECIST
[8] = human, plasma, oral, 60 mg, Mean (SD), QID/M-7D 60 mg, Day 7, Dose 2, steady state, n=6
[9] = human, plasma, oral, 60 mg, Mean (SD), QID/M-14D 60 mg, Day 14, Dose 2, steady state, n=3
[10] = human, plasma, oral, 60 mg, QID/M-21D 60 mg, Day 21, Dose 2, steady state, individual data, n=1
[11] = human, plasma, oral, 70 mg, Mean (SD), QID/M-7D 70 mg, Day 7, Dose 2, steady state, n=3
[12] = human, plasma, oral, 80 mg, Mean (SD), QID/M-7D 80 mg, Day 7, Dose 2, steady state, n=3

## O=C(O)c1ccc(Nc2ncc3c(n2)-c2ccc(Cl)cc2C(c2c(F)cccc2F)=NC3)cc1 [MLN8054]
[1]; human, plasma, oral, 60 mg, AUC0–24, QID/M-21D 60 mg, Day 21, Dose 2, steady state, individual data, n=1
  AUC(0-t): 7.03 µM·h
[1]; [8]
  Cmax: 1950 nM
  concentration at 6 h: 1090 nM
[1]; [9]
  Cmax: 2640 nM
  concentration at 6 h: 2070 nM
[1]; [10]
  Cmax: 1500 nM
  concentration at 6 h: 945 nM
[1]; human, plasma, oral, 60 mg, Tmax, Mean (SD), QID/M-7D 60 mg, Day 7, Dose 2, steady state, n=6
  Tmax: 1.3 h
[1]; human, plasma, oral, 60 mg, Tmax, Mean (SD), QID/M-14D 60 mg, Day 14, Dose 2, steady state, n=3
  Tmax: 2.3 h
[1]; human, plasma, oral, 60 mg, Tmax, QID/M-21D 60 mg, Day 21, Dose 2, steady state, individual data, n=1
  Tmax: 1 h
[1]; human, plasma, oral, 70 mg, AUC0–24, Mean (SD), QID/M-7D 70 mg, Day 7, Dose 2, steady state, n=3
  AUC(0-t): 15.2 µM·h
[1]; [11]
  Cmax: 3280 nM
  concentration at 6 h: 1950 nM
[1]; human, plasma, oral, 70 mg, Tmax, Mean (SD), QID/M-7D 70 mg, Day 7, Dose 2, steady state, n=3
  Tmax: 1.5 h
[1]; human, plasma, oral, 70 mg, mean plasma MLN8054 concentration maintained over the course of treatment, QID/M-7D 70 mg cohort
  concentration at 7 days: 2000 nM
[1]; human, plasma, oral, 80 mg, AUC0–24, Mean (SD), QID/M-7D 80 mg, Day 7, Dose 2, steady state, n=3
  AUC(0-t): 10.1 µM·h
[1]; [12]
  Cmax: 2130 nM
  concentration at 6 h: 1670 nM
[1]; human, plasma, oral, 80 mg, Tmax, Mean (SD), QID/M-7D 80 mg, Day 7, Dose 2, steady state, n=3
  Tmax: 1 h
[1]; human, plasma, po
  half-life: 1800 to 2400 min
[1]; human, plasma, po, Tmax (range across cohorts), patients, across cohorts
  Tmax: 1 to 4 h
[1]; of the 48 patients with sufficient data to estimate pharmacokinetic parameters
  patients with trough MLN8054 concentrations >2000 nM: 7 patients
[2]
  highest non-severely toxic dose: 20 mg/m^2/day
[3]
  antitumor activity in xenograft models: antitumor activity in human tumor xenografts including colon, prostate, and lung cancer models
[3]; maintained for 8–12 hours per day, human tumor xenografts grown in mice
  plasma concentration whose maintenance is required for efficacy: ~ 2000 nM
[4]
  dose-limiting toxicities (DLTs) in preclinical toxicology studies: myelosuppression and gastrointestinal toxicity
[5]; human liver S9 fractions
  major phase 1 biotransformation pathway: Hydroxylation of the azepine moiety
  predominant mechanism of biotransformation: Glucuronidation of the carboxylate moiety of MLN8054 to an acyl glucuronide
[5]
  enzymes mediating biotransformation: Glucuronidation was mediated by UGT1 and UGT2 and hydroxylation by CYP1A2, 2C9, 2C19, 2D6, and 3A4
[6]; human, in vivo
  Any drug-related adverse event, Any Grade: 55 (90)
  Any drug-related adverse event, Grade 3: 13 (21)
  Drug-related Abnormal coordination, Any Grade: 5 (8)
  Drug-related Abnormal coordination, Grade 3: 1 (2)
  Drug-related Anorexia, Any Grade: 8 (13)
  Drug-related Anorexia, Grade 3: 0 (0)
  Drug-related Asthenia, Any Grade: 6 (10)
  Drug-related Asthenia, Grade 3: 1 (2)
  Drug-related Confusion, Any Grade: 11 (18)
  Drug-related Confusion, Grade 3: 4 (7)
  Drug-related Dizziness, Any Grade: 7 (11)
  Drug-related Dizziness, Grade 3: 1 (2)
  Drug-related Fatigue, Any Grade: 15 (25)
  Drug-related Fatigue, Grade 3: 1 (2)
  Drug-related Hallucination, Any Grade: 1 (2)
  Drug-related Hallucination, Grade 3: 1 (2)
  Drug-related Hyperbilirubinemia, Any Grade: 3 (5)
  Drug-related Hyperbilirubinemia, Grade 3: 1 (2)
  Drug-related Hyperglycemia, Any Grade: 5 (8)
  Drug-related Hyperglycemia, Grade 3: 1 (2)
  Drug-related Increased blood alkaline phosphatase, Any Grade: 4 (7)
  Drug-related Increased blood alkaline phosphatase, Grade 3: 1 (2)
  Drug-related Muscular weakness, Any Grade: 5 (8)
  Drug-related Muscular weakness, Grade 3: 1 (2)
  Drug-related Nausea, Any Grade: 10 (16)
  Drug-related Nausea, Grade 3: 0 (0)
  Drug-related Peripheral motor neuropathy, Any Grade: 1 (2)
  Drug-related Peripheral motor neuropathy, Grade 3: 1 (2)
  Drug-related Somnolence, Any Grade: 47 (77)
  Drug-related Somnolence, Grade 3: 11(18)
  Drug-related Vomiting, Any Grade: 6 (10)
  Drug-related Vomiting, Grade 3: 0 (0)
  drug-related grade 4 or 5 AE: no patient had a drug-related grade 4 or 5 AE
  grade ≥ 3 mucositis or myelosuppression: No dose studied was associated with grade ≥ 3 mucositis or myelosuppression
[6]; nine patients, none of the deaths considered drug-related
  patients who died within 21 days of the last dose: 15%
[7]; 3 patients
  patients with stable disease for greater than 6 cycles: 5%
[7]; 5–80 mg per day for 7, 14 or 21 days
  complete or partial responses: No complete or partial responses were seen
[7]; nine patients, all cohorts
  patients with stable disease for at least 4 cycles: 15%
